The test system of the experiment is panelists. The experiment can be described thus: Degree of Difference (DOD) of test rice from control rice. It counts as in vivo, human. Set-up: Degree of Difference in rice: scale not given here. As to conditions: for Degree of Difference in rice: difference from Control; for Degree of Difference in rice / DOD from Control: rice; for DOD from Control: scale 0.0 to 10.0. The source says:
The present example describes the evaluation of the descriptive profile of pGlu-Cys (identified as “FE-35”), pGlu-Cys-Gly (identified as “FE-36”), pGlu-Cys-Cys (identified as “FE-37”), pGlu-Cys-Val (identified as “FE-38”) and pGlu-Val-Cys (identified as “UE-30”) peptides of the present application. An objective of the study was to understand the efficacy of flavor enhancer compounds FE-35, FE-36, FE-37, FE-38 and UE-30 in increasing concentrations both in solution and in rice, and to determine a Degree of Difference (DOD) score between a control rice sample (which includes NaCl, and no flavor composition peptide) and the test rice samples (with added flavor composition peptides at increasing concentrations).

Square brackets hold non-standard residues; d marks the D form. Ends that are not written are not given here. pGlu = O=C1CC[C@@H](C(=O)O)N1

For “[pGlu]-Cys-Cys (cysteine pairing not given here) [FE-37]”, the “Whether consumers notice a difference between the Control and test rice (DOD)” value is given as “Consumers will may or may not notice a difference” (1 and 10 ppb); “Consumers may or may not notice a difference” (10 ppb); “Consumers will likely notice a difference” (100 ppb). Besides, the “Degree of Difference in rice” value came to 4.0 (1.0 ppb), 4.5 (10.0 ppb) and 5.0 (100.0 ppb). The “DOD from Control” value turned out to be 4.0 (1.0 ppb (5 ppm)), 4.5 (10.0 ppb (50 ppm)) and 5.0 (100 ppb (50 ppm)).

Regarding [pGlu]-Cys-Val [FE-38], the “Whether consumers notice a difference between the Control and test rice (DOD)” value by setting is: (1 and 100 ppb) “Consumers may or may not notice a difference”; (10 ppb) “Consumers will likely notice a difference”. Besides, the “Degree of Difference in rice” value is, setting by setting: (1.0 ppb) 4.5; (10.0 ppb) 5.0; (100.0 ppb) 4.5. For the same substance, the “DOD from Control” value (1.0 ppb (5 ppm)) turned out to be 4.5, the “DOD from Control” value (10.0 ppb (50 ppm)) was determined as 5.0 and the “DOD from Control” value (100 ppb (50 ppm)) came to 4.5.

Turning to [pGlu]-Cys [FE-35], the “Whether consumers notice a difference between the Control and test rice (DOD)” value by setting is: (1 ppb) “Consumers will likely not notice the difference”; (10 and 100 ppb) “Consumers will likely notice a difference”. Besides, the “Degree of Difference in rice” value by setting is: (1.0 ppb) 3.8; (10.0 ppb) 5.0; (100.0 ppb) 5.0. Also, the “DOD from Control” value runs as follows: (1.0 ppb (5 ppm)) 3.8; (10.0 ppb (50 ppm)) 5.0; (100 ppb (50 ppm)) 5.0.

In the case of [pGlu]-Val-Cys [UE-30], the “Whether consumers notice a difference between the Control and test rice (DOD)” value by setting is: (1 ppb) “Consumers may or may not notice a difference”; (10 and 100 ppb) “Consumers will likely notice a difference”. The “Degree of Difference in rice” value was found to be 4.5 (1.0 ppb), 5.0 (10.0 ppb) and 5.0 (100.0 ppb). The “DOD from Control” value by setting is: (1.0 ppb (5 ppm)) 4.5; (10.0 ppb (50 ppm)) 5.0; (100 ppb (50 ppm)) 5.0.

[pGlu]-Cys-Gly [FE-36]: the “Whether consumers notice a difference between the Control and test rice (DOD)” value (all concentrations) is reported as “Consumers will likely notice a difference”. Also, the “Degree of Difference in rice” value is listed as 5.0 (1.0 ppb), 5.0 (10.0 ppb) and 5.5 (100.0 ppb). Further, the “DOD from Control” value reads like this: (1.0 ppb (5 ppm)) 5.0; (10.0 ppb (50 ppm)) 5.0; (100 ppb (50 ppm)) 5.5.
